# Entries after “also recorded” stand apart in the source; their conditions may differ.
# Key:
# [1] = test system: IGF1R; assay: IGF1R level by immunoblotting in transfected MDA-231 cells; format: cell-based, human
# Procedure: (§1) The human and murine cell lines used in this study were cultured in RPMI 1640 plus 10% FCS at 37° C. in a humidified atmosphere of 5% CO2. The cultures were negative when tested for Mycoplasma infection. Cultures were passaged the day before transfection to achieve 30-50% confluence the following day. Initial transfections of ASOs used 1-2.5 μg/ml Cytofectin (Glen Research, Sterling, Va.), according to the manufacturer's instructions. Latterly Oligofectamine (Life Sciences) has been used for all ASO and RNAi transfections. The method was as described (see manufacturer's instructions and www.dharmacon.com) with minor modifications. For transfection of monolayers seeded in 6 well plates, 5 μl phosphorothioate oligonucleotide or RNA duplex at 100× final concentration were mixed with 2501 serum-free Optimem (Gibco-BRL). In a separate tube 2 μl Oligofectamine was mixed with 68 μl Optimem. After 10 min incubation at room temperature the contents of the two tubes were mixed and incubated for a further 25 min at room temperature. Monolayers were washed with 1-2 ml Optimem. To the cells were added 175 μl Optimem followed by the 325 μl complexes. Volumes were scaled up by factors of 2.22 or 6.05 for transfection in 60 mm or 100 mm dishes respectively. Cultures were incubated at 37° C. for 4 hr, and then 50 μl FCS and 3.5 ml RPMI plus 5% FCS were added to each well. After 48 hr incubation effects on IGF1R and IR expression were determined by immunoblotting. Some transfected cultures were serum-starved overnight, divided into two aliquots and treated with 10 nM Long R3-IGF-I (GroPep, Adelaide) or diluent for 30 min at 37° C. prior to lysis.
# (§2) IGF1R expression was assessed by immunoblotting as previously described (Macaulay et al 2001). After washing in ice-cold PBS, cells were lysed in 50 mM Hepes pH 7.5, 100 mM NaCl, 10 mM EDTA, 1% Triton-X-100, 4 mM sodium pyrophosphate, 2 mM sodium orthovanadate, 10 mM sodium fluoride, 1 mM PMSF, 2 μg/ml each leupeptin and aprotinin. Lysates were centrifuged for 15 minutes at 14,000 g, the protein concentration of supernatants was measured using BCA assay reagent (Pierce), and equivalent amounts of protein were separated on 7.5% SDS-PAGE gels and transferred to nitrocellulose. Target protein levels were assessed using antibodies to the β-subunit of the IGF1R or IR (Santa Cruz), phospho-Ser 473 Akt or total Akt (Cell Signalling, New England Biolabs) or β-tubulin (Sigma). Activated IGF1R was detected by immunoprecipitation for phosphotyrosine (P-Tyr-100, Cell Signaling Technology). Primary antibodies were detected with HRP-conjugated secondary antibodies (Dako), and ECL Plus (Amersham Pharmacia).
# The ASOs and RNAi duplexes were transfected into MDA-231 cells (human ER negative breast cancer) using Cytofectin or Oligofectamine, as described above. After 48 hr the cells were lysed, and IGF1R and IR levels were measured by immunoblotting. The intensity of the autoradiographic bands was quantified by densitometry, and IGF1R (or IR) levels were corrected for loading differences. The specific IGF1R or IR results are presented as % IGF1R (or IR) level of that in cells transfected with the same concentration of an appropriate control. This was a scrambled control oligonucleotide for ASOs, and an inverted RNA duplex for RNAi.
# [2] = test system: B16 melanoma cells; assay: Growth in vivo of B16 melanoma cells transfected with RNA duplexes; settings: B16 cells transfected with 200 nM duplex on three consecutive days, flanks of C57BL mice
# Procedure: FIG. 8 illustrates growth in vivo in C57BL mice of B16 melanoma cells transfected with RNA duplexes. B16 melanoma cells were transfected with 200 nM duplexes (RNA22 is R2, Inv22 is Inv2) or oligofectamine alone (OF) for three consecutive days. On the 4th day cells were injected into the flanks of C57BL mice, using 2.5×10^5 cells/mouse, using groups of 5 mice. Tumours were measured in 2 dimensions every 2-3 days. Tumour volumes were calculated as n(a×b^2)/6 where a is the larger and b the smaller dimension.
# B16 cells were transfected with 200 nM RNA duplexes (RNA22=R2, 22Inv=Inv2) or oligofectamine alone (OF) for three consecutive days. On the 4th day cells were injected into the flanks of C57BL mice, using 2.5×10^5 cells/mouse, using groups of 5 mice. Tumours were measured in 2 dimensions every 2-3 days. Tumour volumes were calculated as n(a×b^2)/6 where a is the larger and b the smaller dimension.
# [3] = test system: IGF-I signaling to Akt; assay: IGF signalling: phosphorylation of IGF1R β-subunit and Akt after IGF-I in transfected MDA-MB-231 cells; format: cell-based, human; settings: MDA-MB-231, 100 nM duplexes, 50 nM IGF-1 for 30 min
# Procedure: as §2
# MDA-MB-231 cells transfected with 100 nM RNA duplexes were serum-starved overnight and treated with 50 nM IGF-1 or diluent for 30 min. The cells were lysed and lysates were analysed by immunoblotting for IGF1R, phospho-Ser473-Akt and total Akt, and by phosphotyrosine immunoprecipitation and IGF1R immunoblotting to detect phosphorylated IGF1R β-subunit (see FIG. 7).
# [4] = test system: IGF1R; assay: IGF1R levels by immunoblotting in B16 murine melanoma cells transfected with RNAi duplexes; format: cell-based; settings: 10 nM duplex, 48 hr
# Procedure: The human and murine cell lines used in this study were cultured in RPMI 1640 plus 10% FCS at 37° C. in a humidified atmosphere of 5% CO2. The cultures were negative when tested for Mycoplasma infection. Cultures were passaged the day before transfection to achieve 30-50% confluence the following day. Initial transfections of ASOs used 1-2.5 μg/ml Cytofectin (Glen Research, Sterling, Va.), according to the manufacturer's instructions. Latterly Oligofectamine (Life Sciences) has been used for all ASO and RNAi transfections. The method was as described (see manufacturer's instructions and www.dharmacon.com) with minor modifications. […] After 48 hr incubation effects on IGF1R and IR expression were determined by immunoblotting. […]
# IGF1R expression was assessed by immunoblotting as previously described (Macaulay et al 2001). […] Lysates were centrifuged for 15 minutes at 14,000 g, the protein concentration of supernatants was measured using BCA assay reagent (Pierce), and equivalent amounts of protein were separated on 7.5% SDS-PAGE gels and transferred to nitrocellulose. Target protein levels were assessed using antibodies to the β-subunit of the IGF1R or IR (Santa Cruz), phospho-Ser 473 Akt or total Akt (Cell Signalling, New England Biolabs) or β-tubulin (Sigma). Activated IGF1R was detected by immunoprecipitation for phosphotyrosine (P-Tyr-100, Cell Signaling Technology). […]
# [5] = test system: IGF1R; assay: IGF1R levels by immunoblotting in human tumour cell lines transfected with RNAi duplexes; format: cell-based; settings: for IGF1R level as % of levels in cells transfected with inverted control duplex: 10 nM duplex, 48 hr
# Procedure: as §1
# as §2, with “Pharmacia). […]” for “Pharmacia).”
# Tumour cells were transfected with 10 nM duplexes and IGF1R levels were measured after 48 hr. After correction for loading differences IGF1R levels in cells transfected with RNAi were expressed as % of levels in cells transfected with equivalent inverted control duplex.
# [6] = test system: Human EJ28 invasive bladder carcinoma cells; assay: Survival and mitomycin-C sensitivity of EJ28 invasive bladder carcinoma cells; format: cell-based; settings: human bladder cancer cells
# Procedure: FIG. 20 illustrates that IGF1R gene silencing inhibits survival and enhances chemosensitivity of invasive bladder cancer. Human EJ28 invasive bladder carcinoma cells were transfected with 200 nM TSS or control duplex. After 48 hr the cells were disaggregated and re-seeded. To measure survival, 2000 cells were seeded in 10 cm dishes. Survival in TSS-transfected cells was only 0.2% of that in control-treated cultures, p<0.001). For chemosensitivity testing, cells were re-seeded into 96-well plates. The following day cultures were treated with mitomycin-C at the indicated concentrations for 24 hours, after which the medium was changed. After a further 4 days, growth was measured by calorimetric assay (MTS assay).
# [7] = test system: DU145 and PC3 cells; assay: Radio- and chemosensitivity of prostate cancer cells after IGF1R gene silencing (clonogenic, change in IC50); format: cell-based, human; settings: 200 nM duplex (FIG. 19)
# Procedure: FIG. 19 illustrates that IGF1R gene silencing enhances chemosensitivity of androgen-resistant prostate cancer. PC3 cells were transfected with 200 nM TSS (red line) or scrambled sequence control duplex (green). After 48 hr the cells were disaggregated and re-seeded in 10 cm dishes (4000 cells/dish). The following day the cultures were treated with mitoxantrone at the indicated concentrations for 24 hours, after which the medium was changed and cells were allowed to survive to form colonies (>50 cells). Dotted lines mark IC501 dose required to inhibit survival to 50% untreated level.
# Furthermore, IGF1R gene silencing appeared to enhance prostate cancer radio- and chemo-sensitivity (FIG. 19). The alteration in sensitivity was calculated as change in IC50, the concentration of drug/irradiation required to reduce the colony count to 50% of that in untreated cultures, as follows: [formula]
# [8] = test system: Human prostate cancer cells; assay: Clonogenic survival of human prostate cancer cells transfected with siRNA TSS; format: cell-based; settings: all three prostate cancer cell lines (DU145, PC3, LNCaP), 200 nM
# Procedure: FIG. 18 illustrates how IGF1R gene silencing inhibits survival of prostate cancer cells. Human prostate cancer cells were transfected with 200 nM TSS or control duplex. After 48 hr the cells were disaggregated and re-seeded in 10 cm dishes (2000 cells/dish). After 1-3 weeks incubation (depending on the cell line), visible colonies were stained and counted. Bars show mean±sem of triplicate dishes. **p<0.01, ***p<0.001 for comparison of survival in cultures treated with TSS versus control duplex.
# [9] = test system: IGF1R; assay: IGF1R Western blot in prostate cancer cells transfected with siRNA TSS; format: cell-based, human; settings: for IGF1R level, % of levels in cells treated with control duplex: 48 hours after transfection
# Procedure: Prostate cancer cells were transfected with 200 nM siRNA TSS homologous to nt 166-186 of the IGF1R gene or inverted sequence control.
# as §1, §2
# [10] = test system: UC101 human ovarian cancer cells; assay: Tumorigenicity of UC101 ovarian cancer cells transfected with siRNA (xenografts); format: in vivo, female athymic (nu/nu mice); settings: UC101 cells transfected with 200 nM siRNA, nu/nu mice
# Procedure: UC101 ovarian cancer cells were transfected with 200 nM siRNA, mixed with irradiated NIH-3T3 cells and inoculated into the flanks of female athymic (nu/nu mice).
# Tumorigenicity testing was conducted using UC101 human ovarian cancer cells transfected with 200 nM siRNA. After 48 hr the cells were inoculated into the flanks of female athymic (nu/nu mice), using 5×10^6 tumour cells mixed with 5×10^6 irradiated NIH-3T3 cells per mouse. Tumours were measured and volumes calculated as described (Macaulay et al., Oncogene 20: 2029-40, 2001). All procedures were performed in accordance with the Home Office Scientific Procedures Act 1986, and with the approval of the Animal Ethics Committee of Cancer Research UK.
Substance,"Inhibition of IGF1R expression on immunoblot ([1]; MDA-231 breast cancer cells, 10-200 nM)",Tumour growth in vivo compared with inverted control RNA duplex [2],IGF-I signaling to Akt / IGF-1-induced phosphorylation [3],IGF1R level as % of levels in cells transfected with inverted control duplex [4],IGF1R level as % of levels in cells transfected with inverted control duplex ([5]; A549 human non-small cell lung),IGF1R level as % of levels in cells transfected with inverted control duplex ([5]; DU145 human prostate cancer),IGF1R level as % of levels in cells transfected with inverted control duplex ([5]; ME human melanoma),"Inhibition of IGF1R expression on immunoblot ([5]; ME melanoma cells, 10-200 nM)",IGF1R gene silencing ([1]; MDA-MB-231 human breast carcinoma cells),Clonogenic survival [6],Sensitivity to mitomycin-C ([6]; MTS assay),Change in mitoxantrone IC50 [7],Inhibition of clonogenic survival [8],"IGF1R level, % of levels in cells treated with control duplex ([9]; DU145, 200 nM)","IGF1R level, % of levels in cells treated with control duplex ([9]; LNCaP, 200 nM)","IGF1R level, % of levels in cells treated with control duplex ([9]; PC3, 200 nM)","Inhibition of IGF1R expression ([9]; all three prostate cancer cell lines (DU145, PC3, LNCaP))",Tumour development [10],"IGF1R downregulation compared between 21mer duplexes ([1]; MDA-231 cells, 0.5, 5 and 50 nm (FIG. 5))","IGF1R downregulation ([5]; 10 nM, human ME melanoma and A549 NSCLC)"
"R2: RNAi duplex GCCGAUGUGUGAGAAGACCTT / TTCGGCUACACACUCUUCUGG, SEQ ID NO:23 (sense GCCGAUGUGUGAGAAGACCNN; chemistry not fully specified; one strand is listed 3' to 5')",almost complete inhibition of IGF1R expression,reduced growth rate in vivo,could not detect IGF-1-induced phosphorylation of the IGF1R β-subunit or of Akt,45 ± 4%,22 ± 2%,34 ± 13%,53 ± 3%,almost complete inhibition of IGF1R expression,,,,,,,,,,,,
"siRNA TSS: 21mer duplex homologous to nucleotides 166-186 of the IGF1R transcript, CGACUAUCAGCAGCUGAAGTT / TTGCUGAUAGUCGUCGACUUC, SEQ ID NO:37 (CGACUAUCAGCAGCUGAAGNN; second strand not cited, chemistry not fully specified)",,,,,,,,,induce IGF1R gene silencing,profound inhibition of clonogenic survival,enhancement of sensitivity to mitomycin-C,−2 fold,significant inhibition,18%,17%,22%,significant inhibition,,,
"R6: RNAi duplex CUACAUUGUGGGGAAUAAGTT / TTGAUGUAACACCCCUUAUUC, SEQ ID NO:34 (CUACAUUGUGGGGAAUAAGNN; second strand not cited, chemistry not fully specified)",,,not sufficient to abolish IGF-I signaling to Akt,72 ± 14%,102 ± 16%,74 ± 8%,104 ± 5%,,,,,,,,,,,rapidly growing tumours,significantly less potent; also recorded: less than the effect of the mutant duplex Mut2,essentially inactive
